Measurements reported in patent US20230085307A1, “PYRIDAZINONE COMPOUND AND HERBICIDE” (NISSAN CHEMICAL CORPORATION, priority 2019, published 2023).

Experiments:
chickweed = assay: Test Example 5: herbicidal effect by foliage application, plastic box (Table 20, symbol P); format: in vivo, common chickweed (Stellaria media); conditions: foliage application
Description: [Test Example 5] Herbicidal Effect Test by Foliage Application
Sterilized diluvial soil was placed in a plastic box having a length of 21 cm, a width of 13 cm, and a depth of 7 cm. The seeds of each of southern crabgrass, green foxtail, barnyard grass, wild oat, blackgrass, Italian ryegrass, windgrass, velvetleaf, redroot pigweed, lambsquarters, chickweed, false cleavers, persian speedwell, corn, soybean, rice, wheat, beet, and rapeseed were sowed in a spot-like manner and covered with the soil having a thickness of about 1.5 cm. Thereafter, the plants were grown in a greenhouse at 25° C. to 30° C. After 14-day growth of the plants, the emulsion agent of the compound of the present invention prepared according to Formulation Example 2 was diluted with water so as to achieve a predetermined herbicide amount, and the diluted emulsion agent was uniformly applied to a foliage part with a small-sized spray. Three weeks after the herbicide application, the effect of the herbicide on each plant was evaluated according to the criteria of Test Example 1.

blackgrass = assay: Test Example 5: herbicidal effect by foliage application, plastic box (Table 20, symbol J); format: in vivo, blackgrass (Alopecurus myosuroides); conditions: foliage application
Outline: (§1)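 Plants sown in sterilized diluvial soil and grown 14 days in a greenhouse at 25° C to 30° C, then sprayed on the foliage with the compound's emulsion diluted in water to a predetermined herbicide amount. Injury to weeds and crops scored three weeks after application on a visual rating scale.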

barnyard grass [1] = assay: Test Example 5: herbicidal effect by foliage application, plastic box (Table 20, symbol H); format: in vivo, barnyard grass (Echinochloa crus-galli); conditions: foliage application
Outline: as §1

wild oat = assay: Test Example 5: herbicidal effect by foliage application, plastic box (Table 20, symbol I); format: in vivo, wild oat (Avena fatua); conditions: foliage application
Outline: as §1

Italian ryegrass = assay: Test Example 5: herbicidal effect by foliage application, plastic box (Table 20, symbol K); format: in vivo, Italian ryegrass (Lolium multiflorum); conditions: foliage application
Outline: as §1

windgrass = assay: Test Example 5: herbicidal effect by foliage application, plastic box (Table 20, symbol L); format: in vivo, windgrass (Apera spica-venti); conditions: foliage application
Outline: as §1

velvetleaf = assay: Test Example 5: herbicidal effect by foliage application, plastic box (Table 20, symbol M); format: in vivo, velvetleaf (Abutilon theophrasti); conditions: foliage application
Outline: as §1

lambsquarters = assay: Test Example 5: herbicidal effect by foliage application, plastic box (Table 20, symbol O); format: in vivo, lambsquarters (Chenopodium album); conditions: foliage application
Outline: as §1

redroot pigweed = assay: Test Example 5: herbicidal effect by foliage application, plastic box (Table 20, symbol N); format: in vivo, redroot pigweed (Amaranthus retroflexus); conditions: foliage application
Outline: as §1

persian speedwell = assay: Test Example 5: herbicidal effect by foliage application, plastic box (Table 20, symbol R); format: in vivo, Persian speedwell (Veronica persica); conditions: foliage application, 320 g/ha, three weeks after application
Outline: as §1

green foxtail = assay: Test Example 5: herbicidal effect by foliage application, plastic box (Table 20, symbol G); format: in vivo, green foxtail (Setaria viridis); conditions: foliage application
Outline: as §1

southern crabgrass = assay: Test Example 5: herbicidal effect by foliage application, plastic box (Table 20, symbol F); format: in vivo, southern crabgrass (Digitaria ciliaris); conditions: foliage application
Outline: as §1

barnyard grass [2] = assay: Test Example 3: herbicidal effect by foliage application, Wagner pot (Table 18, symbol H); format: in vivo, barnyard grass (Echinochloa crus-galli); conditions: amount of applied herbicide 320 g/ha
Outline: (§2)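 Plants were sown in alluvial soil held under 0.1–0.5 cm standing water and grown 14 days in a greenhouse at 25–30 °C. An emulsifiable formulation, water-diluted to the set dose, was then sprayed onto the foliage, and effects were scored three weeks later using previously defined criteria.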

rice flat sedge = assay: Test Example 3: herbicidal effect by foliage application, Wagner pot (Table 18, symbol E); format: in vivo, rice flat sedge (Cyperus iria); conditions: amount of applied herbicide 320 g/ha
Outline: as §2

Chinese sprangletop = assay: Test Example 3: herbicidal effect by foliage application, Wagner pot (Table 18, symbol D); format: in vivo, chinese sprangletop (Leptochloa chinensis); conditions: amount of applied herbicide 320 g/ha
Outline: as §2

[3] = 320 g/ha, three weeks after application
[4] = AAH 320 g/ha, evaluated three weeks after application

Structure (SMILES): COc1ccc(-c2sc3ccccc3c2-c2c(O)c(C)nn(C)c2=O)c(OC)n1 [1-079]
- herbicidal effect grade, P: chickweed (chickweed; [3]): 1 (Herbicidal rate of 5% or more and less than 20%)
- herbicidal effect grade, J: blackgrass (blackgrass; [3]): 0 (Herbicidal rate of 5% or less (almost no effect))
- herbicidal effect grade, H: barnyard grass (barnyard grass [1]; [3]): 0 (Herbicidal rate of 5% or less (almost no effect))
- herbicidal effect grade, I: wild oat (wild oat; [3]): 0 (Herbicidal rate of 5% or less (almost no effect))
- herbicidal effect grade, K: Italian ryegrass (Italian ryegrass; [3]): 0 (Herbicidal rate of 5% or less (almost no effect))
- herbicidal effect grade, L: windgrass (windgrass; [3]): 0 (Herbicidal rate of 5% or less (almost no effect))
- herbicidal effect grade, M: velvetleaf (velvetleaf; [3]): 0 (Herbicidal rate of 5% or less (almost no effect))
- herbicidal effect grade, O: lambsquarters (lambsquarters; [3]): 0 (Herbicidal rate of 5% or less (almost no effect))
- herbicidal effect grade, N: redroot pigweed (redroot pigweed; [3]): 0 (Herbicidal rate of 5% or less (almost no effect))
- herbicidal effect grade, R: persian speedwell (persian speedwell): 0 (Herbicidal rate of 5% or less (almost no effect))
- herbicidal effect grade, G: green foxtail (green foxtail; [3]): 0 (Herbicidal rate of 5% or less (almost no effect))
- herbicidal effect grade, F: southern crabgrass (southern crabgrass; [3]): 0 (Herbicidal rate of 5% or less (almost no effect))

Structure (SMILES): COC(=O)COc1c(C)nn(C)c(=O)c1-c1c(-c2ccc(OC(F)F)cc2)sc2ccc(F)cc12 [2-306]
- P: chickweed, herbicidal effect (criteria 0-5) (chickweed; [4]): 5 (Herbicidal rate of 90% or more (almost completely withered))
- J: blackgrass, herbicidal effect (criteria 0-5) (blackgrass; [4]): 0 (Herbicidal rate of 5% or less (almost no effect))
- H: barnyard grass, herbicidal effect (criteria 0-5) (barnyard grass [1]; [4]): 0 (Herbicidal rate of 5% or less (almost no effect))
- I: wild oat, herbicidal effect (criteria 0-5) (wild oat; [4]): 0 (Herbicidal rate of 5% or less (almost no effect))
- K: Italian ryegrass, herbicidal effect (criteria 0-5) (Italian ryegrass; [4]): 0 (Herbicidal rate of 5% or less (almost no effect))
- L: windgrass, herbicidal effect (criteria 0-5) (windgrass; [4]): 0 (Herbicidal rate of 5% or less (almost no effect))
- M: velvetleaf, herbicidal effect (criteria 0-5) (velvetleaf; [4]): 0 (Herbicidal rate of 5% or less (almost no effect))
- O: lambsquarters, herbicidal effect (criteria 0-5) (lambsquarters; [4]): 2 (Herbicidal rate of 20% or more and less than 40%)
- herbicidal effect on H: barnyard grass (barnyard grass [2]): 3 (Herbicidal rate of 40% or more and less than 70%)
- N: redroot pigweed, herbicidal effect (criteria 0-5) (redroot pigweed; [4]): 0 (Herbicidal rate of 5% or less (almost no effect))
- herbicidal effect on E: rice flat sedge (rice flat sedge): 3 (Herbicidal rate of 40% or more and less than 70%)
- G: green foxtail, herbicidal effect (criteria 0-5) (green foxtail; [4]): 0 (Herbicidal rate of 5% or less (almost no effect))
- F: southern crabgrass, herbicidal effect (criteria 0-5) (southern crabgrass; [4]): 0 (Herbicidal rate of 5% or less (almost no effect))
- herbicidal effect on D: Chinese sprangletop (Chinese sprangletop): 3 (Herbicidal rate of 40% or more and less than 70%)
